From patent US20050132430A1, “Igamete recruitment and developmental competence in mammals by inhibiting the de-nova sterol biosynthesis and/or promoting sterol efflux” (priority 2001, published 2005)

Key:
[1] = test system: mouse cumulus enclosed oocytes (CEO); assay: IVF fertilisation of cumulus enclosed oocytes after IVM with a statin; format: cell-based
Procedure: Mouse oocytes were isolated and cultured according to descriptions in example 3 but for a single deviation in that the IVM culture medium was further supplemented with 1 mg/mL Fetuin (Sigma F-3385, Sigma, U.S.A.). […] The ethanol was necessary in order to dissolve Mevinolin in the medium. After in vitro maturation for 22 h, oocytes were transferred to a fertilisationn medium consisting of minimal essential medium (MEM) (21090-022, Gibco BRL, Scotland), 200 mM L-glutamine (Gibco BRL, Scotland), 20000 IU/L penicillin (Gibco BRL, Scotland), 20000 IU/L streptomycin (Gibco BRL, Scotland), 3 mg/ml BSA (Sigma A-7030, Sigma-Aldrich, Denmark), 2.3 mM sodium pyruvate (S-8636, Sigma), 10 mM ethylen diamine tetra acetic acid (EDTA, Merck 1.08418.0250) and 1 mg/mL Fetuin (Sigma F-3385, Sigma, U.S.A.). Prior to oocyte transfer into the fertilisation medium, mouse sperm for IVF was obtained the following way: A 6-9 month old C57 black×DBA 2 F1 male mouse (M&B A/S, Ry, Denmark) was killed and the epididymis prepared in physiological saline. Thereafter, the epididymis were cut in small pieces and the bulk material was transferred to four 1-mL culture well containing the 800 μL IVF-medium described above and subsequently placed in an incubator (37° C., 95% atmospheric air: 5% CO2). After 1.5 hours of incubation, 300 μL of the upper liquid phase of each of the four wells was aspirated and transferred to a new glass-vial. The resulting pool of motile sperm was counted in a counting chamber and 50000 motile sperm cells was added each oocyte culture. […] These oocytes were left for another 48 hours and subsequently counted according to the maturational status of the oocyte or the progression of the fertilised zygote, i.e. GV-oocytes, GVBD-oocytes, PB-oocytes, PB^2-oocytes (oocytes with a visible second polar body), 2-cells, 3-4-cells, 4+ cells (zygotes with more than 4 blastomeres) and degenerated cells (usually granulated or cells with extensive plasma-membrane ondulation).

naked mouse oocytes (NO) = assay: IVF fertilisation of naked oocytes after IVM with cyclodextrin; format: cell-based
Description: Mouse oocytes were isolated and cultured according to descriptions in […]. The NOs were divided into […] groups and cultured in dishes containing medium added either 0%o, 0.5%o, 2.0%o or 5%o hydroxypropyl-cyclodextrin (ICN 153540, ICN Ohio, U.S.A.). IVM and IVF conditions were the same as in example 6.

[2] = test system: C57 black×DBA 2 F1 female mice; assay: Number of 2-cells in tuba of gonadotropin-stimulated female mice after statin administration and mating; format: in vivo, mouse; details: for No. of 2-cells in mated animals: pre-pubertal, Gnrh 12 I.U., hCG 10 I.U.
Procedure: Prepubertal C57 black×DBA 2 F1 female mice (M&B A/S, Ry, Denmark) were stimulated to super-ovulation (11 a.m. at day 0) by i.p. Injections of 12 IU Menogon® (Ferring, Denmark) in 200 μL H2O. […] Half of the mice were given additional Injections of 1.6 mg lovastatin, by dissolving a tablet of Mevacor® (Merck Sharp and Dohme, NL) containing 40 mg lovastatin in 5 ml PBS and injecting 200 μL of the resulting slurry i.p. at three consecutive days, beginning at day 0. […] The mice were caged individually one hour later with a mature male mouse of the same strain and supplier (1 male per female). Female and male mice were separated at 9 a.m. at day 3, females were left alone for another 48 h. After killing of the females and dissection of the tuba ovarii, 2-cells were flushed into a plastic dish with culture medium (see later) by mounting a glass pipette in one end of the isolated tuba and blowing by mouth through a filter. The total number of 2-cells flushed per mouse were hereafter counted. The 2-cells were subsequently cultured in Universal IVF-medium (Medicult, Denmark) in an incubator (37° C., 95% atmospheric air, 5% CO2) in 4-well dishes (Nunclon 176740, Nunc, Denmark). After 4 days of culture, wells were scored and numbers of morula, blastocyst or degenerated entities were determined by use of a microscope:
Prepubertal C57 black×DBA 2 F1 female mice (M&B A/S, Ry, Denmark) were treated as in example 1 but for a few deviations. […] In experiment B the dose of statins was decreased to 3×100 μg/animal and administered as in example 1. […] In experiment D the dose of gonadotropins were decreased gradually whereas the dose of statins was administered as in example 1.

[3] = test system: gonadotrophin primed prepubertal mouse ovaries; assay: Free cholesterol, FF-MAS and progesterone in ovaries of gonadotrophin primed prepubertal mice (HPLC); format: in vivo; details: statin treatment on top of hCG
Procedure: Ovaries were isolated pair-wise, weighed, freeze-dried, weighed again and subsequently extracted in 1.0 ml (v/v) 75% n-heptane: 25% isopropanol. […] Eluted material was detected by ultraviolet light absorption between 200-300 nm. […] Standards for cholesterol (Steraloids […]) and P4 (Sigma P-0130) were obtained commercially whereas the FF-MAS standards used was produced in the laboratory as described before (Baltsen et al., 1999).

[4] = test system: motile cell fraction of epididymis; assay: C/PL-ratio in motile cell fraction of epididymis after statin administration; format: in vivo, mouse; details: 3 i.p. injections of 1.0 mg lovastatin per 30 g body weight, male mice
Procedure: Post-pubertal C57 black×DBA 2 F1 male mice (M&B A/S, Ry, Denmark) are used. Four mice are given 3 i.p. injections of 1.0 mg lovastatin per 30 g body weight by dissolving a tablet of Mevacor® (Merck Sharp and Dohme, NL) containing 40 mg lovastatin in 8 ml PBS and injecting 200 μL of the resulting slurry i.p. at 1 p.m. at day-6, -3 and -1, counting the day of epididymal sperm harvest as day 0. […] At 10 a.m on day 0 all mice are killed and the epididymis are prepared in physiological saline. Thereafter, the epididymis are transferred to a 1-mL culture well containing MEM (Gibco BRL, Scotland) supplemented with 2.3 mM pyruvate, 200 mM L-glutamine (Gibco BRL, Scotland), 20000 IU/L penicillin (Gibco BRL, Scotland), 20000 IU/L streptomycin (Gibco BRL, Scotland) and 0.2 mg/ml BSA (Sigma A-7030, Sigma-Aldrich, Denmark) and placed in an incubator (37° C., 95% atmospheric air: 5% CO2).
After 1.5 hours of incubation, the upper liquid phase is aspirated and transferred to a new glass-vial and centrifuged. […] One half is subjected to sterol analysis as designated in the examples above and the total sterol content is calculated to consist of cholesterol, desmosterol, cholesta-7,24-dien-3β-ol, T-MAS and lanosterol. […] The C/PL-ratio is calculated for each individual animal.

[5] = test system: C57 black×DBA 2 F1 male mice; assay: Sperm quality in mice after statin administration; format: in vivo, mouse; details: statin administration as in example 6
Procedure: The set-up involves the same animals and statin administration as in example 6. The animals are analysed by methods that are developed in order to evaluate the fertilising potential and sperm quality.

[6] = test system: C57 black×DBA 2 F1 female mice; assay: Number of 2-cells in tuba of gonadotropin-stimulated female mice after statin administration and mating; format: in vivo, mouse
[7] = test system: patients with type II hyperlipoprotelnemia; details: oral 40 mg daily for 4 months vs dietary management alone; cited from earlier work

In the case of Mevinolin, the “fraction of fertilised oocytes (PB2-oocytes to 4+ cells) after IVF” value ([1]; 10 μM statin in IVM-medium 22 h, vs control and 7.5 I.U./L FSH) was “increased”, the “state of development after 72 hours of embryo culture” value ([1]; vs control and FSH groups) was “more progressed state” and the “cumulus expansion after the IVM culture period” value ([1]; vs control oocytes) was “extensive cumulus expansion”.
With `CC(O)COC[C@H]1O[C@@H]2O[C@H]3[C@H](O)[C@@H](O)[C@@H](O[C@H]4[C@H](O)[C@@H](O)[C@@H](O[C@H]5[C@H](O)[C@@H](O)[C@@H](O[C@H]6[C@H](O)[C@@H](O)[C@@H](O[C@H]7[C@H](O)[C@@H](O)[C@@H](O[C@H]8[C@H](O)[C@@H](O)[C@@H](O[C@H]1[C@H](O)[C@H]2O)O[C@@H]8COCC(C)O)O[C@@H]7COCC(C)O)O[C@@H]6COCC(C)O)O[C@@H]5COCC(C)O)O[C@@H]4COCC(C)O)O[C@@H]3COCC(C)O` (stereo partly drawn) [hydroxypropyl-beta-cyclodextrin, hydroxypropyl-β-cyclodextrin] the “fraction of fertilised oocytes (PB2-oocytes to 4+ cells) after IVF” value (naked mouse oocytes (NO); 0.5, 2.0 or 5 per mille in IVM-medium of NOs vs control) was “increased” and the rate of degeneration (naked mouse oocytes (NO); cyclodextrin in the IVM-medium) was “not affected”.
With `CC[C@H](C)C(=O)O[C@H]1C[C@@H](C)C=C2C=C[C@H](C)[C@H](CC[C@@H]3C[C@@H](O)CC(=O)O3)[C@H]21` [Mevacor, lovastatin] the “development of cultured 2-cells into blastocysts, recovery rates” value ([2]; 2-cells cultured in vitro 4 days) was “indiscriminate to controls”, the “number of 2-cells per animal” value ([2]; 3×1.6 mg statin i.p. during follicular phase maturation, vs control) was “increased significantly” and the “No. of 2-cells in mated animals” value ([2]; Exp. A, 100 μg single, ovulation) was 27.5 ± 3.5. For the same compound, the “No. of 2-cells in mated animals” value ([2]; Exp. A, 1000 μg single, ovulation) was 15.3 ± 7.3, the “No. of 2-cells in mated animals” value ([2]; Exp. B, 100 μg single, ovulation) was 19.3 ± 4.1 and the “No. of 2-cells in mated animals” value ([2]; Exp. B, 3 × 100 μg multi, follicular phase) was 6.5 ± 1.0. The “more 2-cells as compared to mice stimulated with hormone alone” value ([2]; hormone stimulated prepubertal female mice, average, FIG. 5) was “about 70%”, the “LH/hCG induced accumulation of FF-MAS” value [3] was “completely blocks” and the “extent of progesterone (steroid) production” value [3] was “not influenced”. The “tendency of decreasing tissue density of free cholesterol in the ovaries after hCG stimulation” value [3] was “pronounced”, the “C/PL-ratios vs control group” value [4] was “lower” and the “fertilising potential and sperm quality vs control animals” value [5] was “fertility premium”. The “No. of 2-cells in mated animals” value ([6]; Exp. C, mature cycling, Gnrh 12 I.U., 3 × 1.0 mg multi, follicular phase) was 11.4 ± 2.9, the “No. of 2-cells in mated animals” value ([6]; Exp. C, mature cycling, Gnrh 15 I.U., hCG 10 I.U., 1.0 mg single, ovulation) was 16.8 ± 3.4 and the “No. of 2-cells in mated animals” value ([6]; Exp. D, pre-pubertal, Gnrh 4 I.U., hCG 5 I.U., 3 × 1.0 mg multi, follicular phase) was 5. The sperm motility [7] was “small but statistically significant reduction”.
